PubChem BioAssay AID1774 (Sanford-Burnham Center for Chemical Genomics, 2009)
Active and inactive are the calls of the source. No rule for the calls is given here.

System: MDA-MB-435 cytotoxicity with apoptosis inducers, ATPlite, 24 h
Test: PubChem AID 1774
Conditions: stronger effect = higher value

CSc1nc(-c2ccc(C)cc2)nc(C(Cl)Cl)n1
cytotoxicity (at 5 µM): -11% (inactive)
cytotoxicity (compound alone 2.5 uM, at 2.5 µM): -19%
cytotoxicity (plus doxorubicin 50 ug/mL, at 5 µM): 30%
cytotoxicity (plus doxorubicin 100 ug/mL, at 5 µM): 75%
cytotoxicity (plus etoposide 50 uM, at 5 µM): 18%
cytotoxicity (plus etoposide 100 uM, at 5 µM): 14%
cytotoxicity (plus thapsigargin 3 uM, at 5 µM): 17%
cytotoxicity (plus thapsigargin 10 uM, at 5 µM): -7%
cytotoxicity (plus tunicamycin 10 ug/mL, at 5 µM): 10%
cytotoxicity (plus tunicamycin 30 ug/mL, at 5 µM): 16%
